# From ChEMBL document CHEMBL3885861, “Open TG-GATES”
# Species on record: Rattus norvegicus
# Experiment: Open TG-GATES - Regimen: Daily Repeat
# Assay type: toxicity, organism-based, Sprague-Dawley
# Design: regimen Daily Repeat, gender Male, age 6 weeks
# Conditions: in vivo, po, 15 mg/kg, […], route gavage, dose level Middle; for KIDNEY_L / KIDNEY_R / KIDNEY_TOTAL: tissue Kidney; for LIVER: tissue Liver; for A/G / ALP / ALT / AST / BUN / CRE / Ca / Cl / DBIL / GLC / IP / K / LDH / Na / PL / RALB / TBIL / TC / TG / TP / gamma-GTP: tissue Plasma
smiles,measurement,setting,value
CC(=N)S [THIOACETAMIDE],Lym,"tissue Blood, time 28 day",75.4%
same,MCH,"tissue Blood, time 28 day",19 pg
same,MCHC,"tissue Blood, time 28 day",33.9%
same,MCV,"tissue Blood, time 28 day",56.1 fL
same,Mono,"tissue Blood, time 28 day",8.6%
same,Neu,"tissue Blood, time 28 day",14.8%
same,PT,"tissue Blood, time 28 day",11.9 s
same,Plat,"tissue Blood, time 28 day",116.1 x10_4/uL
same,RBC,"tissue Blood, time 28 day",798.6 x10_4/ul
same,Ret,"tissue Blood, time 28 day",3.2%
same,WBC,"tissue Blood, time 28 day",149.2 x10_2/uL
same,KIDNEY_L,time 7 day,1.1 g
same,KIDNEY_R,time 7 day,1.1 g
same,KIDNEY_TOTAL,time 7 day,2.2 g
same,KIDNEY_L,time 14 day,1.2 g
same,KIDNEY_R,time 14 day,1.2 g
same,KIDNEY_TOTAL,time 14 day,2.3 g
same,KIDNEY_L,time 28 day,1.2 g
same,KIDNEY_R,time 28 day,1.2 g
same,KIDNEY_TOTAL,time 28 day,2.4 g
same,LIVER,time 7 day,12.8 g
same,LIVER,time 14 day,12.7 g
same,LIVER,time 28 day,14.1 g
same,A/G,time 7 day,2
same,ALP,time 7 day,926.6 IU/L
same,ALT,time 7 day,29.4 IU/L
same,AST,time 7 day,54.2 IU/L
same,BUN,time 7 day,19 mg/dL
same,CRE,time 7 day,0.6 mg/dL
same,Ca,time 7 day,10.5 mg/dL
same,Cl,time 7 day,105.6 meq/L
same,DBIL,time 7 day,0.016 mg/dL
same,GLC,time 7 day,172.4 mg/dL
same,IP,time 7 day,7.9 mg/dL
same,K,time 7 day,5.1 meq/L
same,LDH,time 7 day,97.4 IU/L
same,Na,time 7 day,136.2 meq/L
same,PL,time 7 day,152.6 mg/dL
same,RALB,time 7 day,4 g/dL
same,TBIL,time 7 day,0.3 mg/dL
same,TC,time 7 day,75.6 mg/dL
same,TG,time 7 day,114.8 mg/dL
same,TP,time 7 day,5.9 g/dL
same,gamma-GTP,time 7 day,2.4 IU/L
same,A/G,time 14 day,2.1
same,ALP,time 14 day,760.2 IU/L
same,ALT,time 14 day,26.2 IU/L
same,AST,time 14 day,47.2 IU/L
same,BUN,time 14 day,20.4 mg/dL
same,CRE,time 14 day,0.6 mg/dL
same,Ca,time 14 day,10.3 mg/dL
same,Cl,time 14 day,104.8 meq/L
same,DBIL,time 14 day,0.05 mg/dL
same,GLC,time 14 day,173.8 mg/dL
same,IP,time 14 day,7.3 mg/dL
same,K,time 14 day,4.8 meq/L
same,LDH,time 14 day,90.2 IU/L
same,Na,time 14 day,134.2 meq/L
same,PL,time 14 day,127 mg/dL
same,RALB,time 14 day,3.9 g/dL
same,TBIL,time 14 day,0.3 mg/dL
same,TC,time 14 day,59.4 mg/dL
same,TG,time 14 day,87.4 mg/dL
same,TP,time 14 day,5.8 g/dL
same,gamma-GTP,time 14 day,1.6 IU/L
same,A/G,time 28 day,2
same,ALP,time 28 day,660.6 IU/L
same,ALT,time 28 day,29.8 IU/L
same,AST,time 28 day,35.4 IU/L
same,BUN,time 28 day,20.4 mg/dL
same,CRE,time 28 day,0.6 mg/dL
same,Ca,time 28 day,10 mg/dL
same,Cl,time 28 day,105.4 meq/L
same,DBIL,time 28 day,0.014 mg/dL
same,GLC,time 28 day,164.8 mg/dL
same,IP,time 28 day,6.3 mg/dL
same,K,time 28 day,4.5 meq/L
same,LDH,time 28 day,114.6 IU/L
same,Na,time 28 day,134 meq/L
same,PL,time 28 day,125.4 mg/dL
same,RALB,time 28 day,3.9 g/dL
same,TBIL,time 28 day,0.2 mg/dL
same,TC,time 28 day,60.4 mg/dL
same,TG,time 28 day,62.4 mg/dL
same,TP,time 28 day,5.8 g/dL
same,gamma-GTP,time 28 day,1.6 IU/L
